Experimental data from paper PMC5117899 (Cell chemical biology, 2016).

Target: T1, AcnA (Staphylococcus aureus, UniProt Q2FYS9)
T1 sequence (Q2FYS9 1-901): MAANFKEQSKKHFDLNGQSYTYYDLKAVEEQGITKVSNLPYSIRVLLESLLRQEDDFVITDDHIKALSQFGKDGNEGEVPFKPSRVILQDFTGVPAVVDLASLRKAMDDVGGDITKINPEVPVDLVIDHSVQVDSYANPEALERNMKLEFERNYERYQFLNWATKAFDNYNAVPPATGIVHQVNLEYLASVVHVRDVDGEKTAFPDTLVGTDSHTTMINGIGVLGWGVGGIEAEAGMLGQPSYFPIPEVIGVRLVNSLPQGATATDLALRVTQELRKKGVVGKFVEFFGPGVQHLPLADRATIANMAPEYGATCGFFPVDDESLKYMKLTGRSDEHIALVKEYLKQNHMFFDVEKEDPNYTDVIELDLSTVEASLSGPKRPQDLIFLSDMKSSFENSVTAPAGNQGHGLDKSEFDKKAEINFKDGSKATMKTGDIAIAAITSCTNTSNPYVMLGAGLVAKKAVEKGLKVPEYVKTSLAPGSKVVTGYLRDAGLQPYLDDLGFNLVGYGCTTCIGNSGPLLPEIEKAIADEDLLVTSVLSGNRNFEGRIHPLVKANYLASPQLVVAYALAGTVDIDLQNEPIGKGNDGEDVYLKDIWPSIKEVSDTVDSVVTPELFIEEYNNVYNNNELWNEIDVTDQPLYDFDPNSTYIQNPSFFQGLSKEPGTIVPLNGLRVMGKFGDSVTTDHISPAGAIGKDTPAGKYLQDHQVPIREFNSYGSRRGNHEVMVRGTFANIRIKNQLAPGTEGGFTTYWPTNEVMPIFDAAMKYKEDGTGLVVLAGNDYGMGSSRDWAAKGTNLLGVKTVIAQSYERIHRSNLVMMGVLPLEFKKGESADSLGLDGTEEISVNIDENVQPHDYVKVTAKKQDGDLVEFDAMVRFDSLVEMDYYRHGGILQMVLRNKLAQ
Assay: spectrophotometric, cis-aconitate formation at […] nm
Format: biochemical
Conditions: Fe-S cluster reconstituted in vitro

O=C(O)C[C@H](C(=O)O)[C@@H](O)C(=O)O [isocitrate]
spectrophotometric, cis-aconitate formation at 240 nm: purified AcnA was determined by monitoring the conversion of isocitrate to cis-aconitate spectrophotometrically
